Test results as given in ChEMBL document CHEMBL3758130, “Effect of Chicoric Acid on Mast Cell-Mediated Allergic Inflammation in Vitro and in Vivo” (J Nat Prod, 2015).
Calls of active or inactive are those of the source. The rule behind the calls is not given here.

Assays:
[1] = Cytotoxicity against HMC1 cells at 6.25 to 50 uM after 24 hrs by MTT assay; format: cell-based; conditions: human, hmc1, 24 h
[2] = Effect on Akt level in HMC1 cells at 12.5 to 50 uM pretreated for 30 mins followed by addition of PMACI incubated for 5 mins by Western blot analysis; format: ADME, cell-based; conditions: human, hmc1, 5 min
[3] = Effect on IKKalpha/beta level in HMC1 cells at 12.5 to 50 uM pretreated for 30 mins followed by addition of PMACI incubated for 15 mins by Western blot analysis; format: ADME, cell-based; conditions: human, hmc1, 0.25 h
[4] = Effect on ERK level in HMC1 cells at 12.5 to 50 uM pretreated for 30 mins followed by addition of PMACI incubated for 15 mins by Western blot analysis; format: cell-based; conditions: human, hmc1, 0.25 h
[5] = Effect on JNK level in HMC1 cells at 12.5 to 50 uM pretreated for 30 mins followed by addition of PMACI incubated for 15 mins by Western blot analysis; format: cell-based; conditions: human, hmc1, 0.25 h
[6] = Effect on p38 level in HMC1 cells at 12.5 to 50 uM pretreated for 30 mins followed by addition of PMACI incubated for 15 mins by Western blot analysis; format: ADME, cell-based; conditions: human, hmc1, 0.25 h
[7] = tested on: Mus musculus; assay: Antiinflammatory activity in ICR male mouse assessed as reduction in compound 48/80-induced mortality rate at 20 mg/kg, ip dosed 1 hr prior to anaphylactic shock measured for 1 hr
[8] = tested on: HMC1; assay: Inhibition of PMACI-induced phosphorylation of ERK in HMC1 cells at 12.5 to 50 uM pretreated for 30 mins followed by addition of PMACI incubated for 15 mins by Western blot analysis; conditions: Homo sapiens
[9] = biological target: c-Jun N-terminal kinase, JNK (Homo sapiens) (UniProt P45983+P53779+P45984); assay: Inhibition of PMACI-induced phosphorylation of JNK in HMC1 cells at 12.5 to 50 uM pretreated for 30 mins followed by addition of PMACI incubated for 15 mins by Western blot analysis
[10] = biological target: MAP kinase p38 (Homo sapiens) (UniProt O15264+Q15759+Q16539+P53778); assay: Inhibition of PMACI-induced phosphorylation of p38 in HMC1 cells at 12.5 to 50 uM pretreated for 30 mins followed by addition of PMACI incubated for 15 mins by Western blot analysis
[11] = biological target: T1, NF-kappa-B inhibitor alpha (Homo sapiens) (UniProt P25963); assay: Inhibition of PMACI-induced degradation of IkappaB-alpha in HMC1 cells at 12.5 to 50 uM pretreated for 30 mins followed by addition of PMACI incubated for 15 mins by Western blot analysis
T1 sequence (whole entry): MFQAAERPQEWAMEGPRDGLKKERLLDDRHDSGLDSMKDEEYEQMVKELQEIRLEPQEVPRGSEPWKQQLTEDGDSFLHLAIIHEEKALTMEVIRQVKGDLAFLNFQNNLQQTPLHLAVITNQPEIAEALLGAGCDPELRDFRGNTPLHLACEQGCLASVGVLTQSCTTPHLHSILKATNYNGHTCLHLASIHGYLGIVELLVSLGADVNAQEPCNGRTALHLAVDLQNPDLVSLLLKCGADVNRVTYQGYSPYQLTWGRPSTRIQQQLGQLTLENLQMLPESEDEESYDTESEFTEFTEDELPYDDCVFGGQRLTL

[12] = tested on: Mus musculus; assay: Antiinflammatory activity in ICR male mouse assessed as reduction in compound 48/80-induced serum histamine level at 20 mg/kg, ip dosed 1 hr prior to anaphylactic shock by enzymeimmunoassay
[13] = biological target: RAC-alpha serine/threonine-protein kinase (Homo sapiens) (UniProt P31749); assay: Inhibition of PMACI-induced phosphorylation of Akt at […] in HMC1 cells at 12.5 to 50 uM pretreated for 30 mins followed by addition of PMACI incubated for 5 mins by Western blot analysis
[14] = biological target: Inhibitor of NF-kappa-B kinase alpha/beta (Homo sapiens) (UniProt O14920+O15111); assay: Inhibition of PMACI-induced phosphorylation of IKKalpha/beta in HMC1 cells at 12.5 to 50 uM pretreated for 30 mins followed by addition of PMACI incubated for 15 mins by Western blot analysis
[15] = biological target: T1, NF-kappa-B inhibitor alpha (Homo sapiens); assay: Inhibition of PMACI-induced phosphorylation of IkappaB-alpha in HMC1 cells at 12.5 to 50 uM pretreated for 30 mins followed by addition of PMACI incubated for 15 mins by Western blot analysis
[16] = tested on: HMC1; assay: Antiinflammatory activity in HMC1 cells assessed as suppression of PMACI-induced IL-6 production pretreated for 30 mins followed by addition of PMACI incubated for 24 hrs by enzyme immunoassay; conditions: Homo sapiens
[17] = tested on: HMC1; assay: Antiinflammatory activity in HMC1 cells assessed as suppression of pro-caspase-1 degradation pretreated for 30 mins followed by addition of PMACI incubated for 15 mins by Western blot analysis; conditions: Homo sapiens
[18] = tested on: HMC1; assay: Antiinflammatory activity in HMC1 cells assessed as suppression of PMACI-induced IL-6 mRNA expression pretreated for 30 mins followed by addition of PMACI incubated for 6 hrs by qRT-PCR analysis; conditions: Homo sapiens
[19] = tested on: HMC1; assay: Antiinflammatory activity in HMC1 cells assessed as suppression of PMACI-induced IL-1beta production pretreated for 30 mins followed by addition of PMACI incubated for 24 hrs by enzyme immunoassay; conditions: Homo sapiens
[20] = tested on: HMC1; assay: Antiinflammatory activity in HMC1 cells assessed as suppression of PMACI-induced TNF-alpha production pretreated for 30 mins followed by addition of PMACI incubated for 24 hrs by enzyme immunoassay; conditions: Homo sapiens
[21] = tested on: HMC1; assay: Antiinflammatory activity in HMC1 cells assessed as suppression of PMACI-induced IL-1beta mRNA expression pretreated for 30 mins followed by addition of PMACI incubated for 6 hrs by qRT-PCR analysis; conditions: Homo sapiens
[22] = tested on: HMC1; assay: Antiinflammatory activity in HMC1 cells assessed as suppression of PMACI-induced TNF-alpha mRNA expression pretreated for 30 mins followed by addition of PMACI incubated for 6 hrs by qRT-PCR analysis; conditions: Homo sapiens

Chain of RAC-alpha serine/threonine-protein kinase (Homo sapiens) (P31749 whole entry): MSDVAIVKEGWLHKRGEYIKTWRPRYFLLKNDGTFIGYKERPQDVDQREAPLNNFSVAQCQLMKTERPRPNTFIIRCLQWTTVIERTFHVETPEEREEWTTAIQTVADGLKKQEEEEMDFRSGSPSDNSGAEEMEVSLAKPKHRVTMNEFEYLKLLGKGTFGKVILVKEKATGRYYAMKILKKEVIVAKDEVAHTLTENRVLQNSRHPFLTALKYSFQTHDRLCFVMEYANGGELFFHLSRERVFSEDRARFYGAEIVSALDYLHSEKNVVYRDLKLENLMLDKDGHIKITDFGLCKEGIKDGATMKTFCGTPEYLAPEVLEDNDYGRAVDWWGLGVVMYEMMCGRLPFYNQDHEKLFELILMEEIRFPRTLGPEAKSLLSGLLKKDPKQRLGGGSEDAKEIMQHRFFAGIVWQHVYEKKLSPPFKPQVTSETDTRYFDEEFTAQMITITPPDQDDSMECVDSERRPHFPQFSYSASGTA

## O=C(/C=C/c1ccc(O)c(O)c1)O[C@@H](C(=O)O)[C@@H](OC(=O)/C=C/c1ccc(O)c(O)c1)C(=O)O [CICHORIC ACID]
[1]
  Activity: Non-toxic
[2]
  Activity: Non-toxic
[3]
  Activity: Non-toxic
[4]
  Activity: Non-toxic
[5]
  Activity: Non-toxic
[6]
  Activity: Non-toxic
[7]
  Activity: Active
[8]
  inhibition: inactive
[9]
  inhibition: inactive
[10]
  inhibition: inactive
[11]
  inhibition: Active
[12]
  Activity: Active
[13]
  inhibition: Active
[14]
  inhibition: Active
[15]
  inhibition: Active
[16]
  Activity: Dose-dependent effect
[17]
  Activity: Active
[18]
  Activity: Dose-dependent effect
[19]
  Activity: Dose-dependent effect
[20]
  Activity: Dose-dependent effect
[21]
  Activity: Dose-dependent effect
[22]
  Activity: Dose-dependent effect
